Results taken from patent publication US20260001914A1, “MACROCYCLIC PEPTIDES TARGETING KRAS” (Merck Sharp & Dohme LLC, priority 2022, published 2026).
*1 amine or outer side, *2 acyl side, *3 side chain or, on linkers, in order; H or OH if unused. Where a SMILES comes first, the peptide text is derived from it. Bridges are numbered along the chain shown (N, C = ends). [ ]: non-standard residue; d: D form. The star is where a group is joined. NMeNva(5-imidazol-1-yl) = CN[C@@H](CCCn1ccnc1)C(=O)O; Phe(4-guanidino) = N=C(N)Nc1ccc(C[C@H](N)C(=O)O)cc1; X82 = CS(=O)(=O)c1ncc(C[C@H](N[*:1])C(=O)[*:2])cn1; Ala(pyrimidin-5-yl) = N[C@@H](Cc1cncnc1)C(=O)O; NMe3Pal(5-F) = CN[C@@H](Cc1cncc(F)c1)C(=O)O; X42 = O=C([C@H](Cc1cc(F)ncc1F)N[*:1])[*:2]; X3 = CN([C@@H](Cc1cncnc1)C(=O)[*:2])[*:1]; Leu(4,5-dehydro) = C=C(C)C[C@H](N)C(=O)O; Ethyl(2-pyrrolidin-1-yl) = C1CCN(CC*)C1; Lys(N3) = [N-]=[N+]=NCCCC[C@H](N)C(=O)O; X46 = O=C([C@H](Cc1cccnc1F)N[*:1])[*:2]; Nle(5,5-F2) = CC(F)(F)CC[C@H](N)C(=O)O; 1Nal = N[C@@H](Cc1cccc2ccccc12)C(=O)O; Ala(4-THP) = N[C@@H](CC1CCOCC1)C(=O)O; NHCH2CH2SCH2CO = O=C(CSCCN[*:1])[*:2]; X21 = O=C([C@@H]1C[C@H]1CN[*:1])[*:2]; Ala(cPent) = N[C@@H](CC1CCCC1)C(=O)O; Phe(2-F) = N[C@@H](Cc1ccccc1F)C(=O)O; NMe3Pal = CN[C@@H](Cc1cccnc1)C(=O)O; NMeY = CN[C@@H](Cc1ccc(O)cc1)C(=O)O; X1 = O=C(C12CC(CN[*:1])(C1)C2)[*:2]; NMeR = CN[C@@H](CCCNC(=N)N)C(=O)O; Ala(cPr) = N[C@@H](CC1CC1)C(=O)O; NMeF = CN[C@@H](Cc1ccccc1)C(=O)O; PhLac = O=C(O)[C@@H](O)Cc1ccccc1; 3Pal = N[C@@H](Cc1cccnc1)C(=O)O; Cba = N[C@@H](CC1CCC1)C(=O)O; hLeu = CC(C)CC[C@H](N)C(=O)O; αMeC = C[C@](N)(CS)C(=O)O; NMeA = CN[C@@H](C)C(=O)O; Nle = CCCC[C@H](N)C(=O)O

The compounds below were run against KRAS-G12D protein (Homo sapiens, UniProt P01116, G12D) (assay: SOS-mediated nucleotide exchange assay (BODIPY-GDP / Tb-streptavidin TR-FRET)).
Sequence of KRAS-G12D protein (P01116 1-188 isoform P01116-2 G12D): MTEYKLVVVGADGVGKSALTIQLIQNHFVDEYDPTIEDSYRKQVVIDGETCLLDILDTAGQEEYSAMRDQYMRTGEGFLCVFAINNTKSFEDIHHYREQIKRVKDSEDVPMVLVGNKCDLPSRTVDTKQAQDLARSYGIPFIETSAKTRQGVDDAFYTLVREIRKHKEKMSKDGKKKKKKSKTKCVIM
Assay type: biochemical

Going from CCCC[C@@H]1NC(=O)[C@H](CCCCN)NC(=O)[C@H](CCCNC(=N)N)NC(=O)[C@H](Cc2cccc3ccccc23)NC(=O)CSC[C@H](C(N)=O)NC(=O)[C@H](Cc2ccccc2)N(C)C(=O)[C@H](CCCC)NC(=O)[C@H](Cc2ccc(O)cc2)NC1=O [compound 19, cyclo(INal-R-K-Nle-Y-Nle-NMeF-dCl-ClAc)] to CCCC[C@@H]1NC(=O)[C@H](Cc2ccc(NC(=N)N)cc2)NC(=O)[C@H](CCCNC(=N)N)NC(=O)[C@H](Cc2cccc3ccccc23)NC(=O)CSC[C@H](C(=O)O)NC(=O)[C@H](Cc2ccccc2)N(C)C(=O)[C@H](CCCC)NC(=O)[C@H](Cc2ccc(O)cc2)NC1=O [compound 141, cyclo(INal-R-Phe4Gn-Nle-Y-Nle-NMeF-dC-ClAc)] ({CH2CO}-[1Nal]R[Phe(4-guanidino)][Nle]Y[Nle][NMeF][dC]-OH; thioether N-8), the EC50 falls from 1280 nM to 16.8 nM (76-fold).

Compared with C=C(C)C[C@@H]1NC(=O)[C@H](CCCC)NC(=O)[C@H](Cc2cccnc2)NC(=O)[C@H](CCCNC(=N)N)NC(=O)[C@H](Cc2ccccc2)NC(=O)CSC[C@@](C)(C(N)=O)NC(=O)[C@H](Cc2cccnc2)N(C)C(=O)[C@H](CCCC)NC1=O [compound 44, cyclo(F-R-3Pal-Nle-deHLeu-Nle-NMe3Pal-aMeCl-ClAc)] ({CH2CO}-FR[3Pal][Nle][Leu(4,5-dehydro)][Nle][NMe3Pal][αMeC]-NH2; thioether N-8), CCCC[C@@H]1NC(=O)[C@H](CCCNC(=N)N)NC(=O)[C@H](Cc2ccccc2)NC(=O)CSCCNC(=O)[C@H](Cc2ccccc2)N(C)C(=O)[C@H](CCCC)NC(=O)[C@H](Cc2ccc(O)cc2)NC(=O)[C@H](CC(C)C)NC1=O [compound 81, cyclo(F-R-Nle-L-Y-Nle-NMeF-Cysteamine-ClAc)] (cyclo(FR[Nle]LY[Nle][NMeF][NHCH2CH2SCH2CO])) is 15-fold higher in EC50: 526 nM for the first, 7980 nM for the second. The first is the more potent here.

Compared with CCCC[C@@H]1NC(=O)[C@H](Cc2cccnc2)NC(=O)[C@H](CCCNC(=N)N)N(C)C(=O)[C@H](Cc2ccccc2)NC(=O)[C@@H]2C[C@H]2CNC(=O)[C@H](Cc2ccccc2)N(C)C(=O)[C@H](CCCCN=[N+]=[N-])NC(=O)[C@H](Cc2ccc(OC)cc2)NC1=O [compound 94, cyclo(F-NMeR-3Pal-Nle-TyrOMe-LysN3-NMeF-tamcPr)] (cyclo(F[NMeR][3Pal][Nle]Y(Me)[Lys(N3)][NMeF][X21])), CCCC[C@@H]1NC(=O)[C@H](Cc2ccc(O)cc2)NC(=O)[C@H](CC(C)C)NC(=O)[C@H](Cc2ccc(OC)cc2)NC(=O)[C@H](CCCNC(=N)N)NC(=O)[C@H](Cc2ccccc2)NC(=O)CSCCNC(=O)[C@H](Cc2ccccc2)N(C)C1=O [compound 72, cyclo(F-R-TyrOMe-L-Y-Nle-NMeF-Cysteamine-ClAc)] is 10-fold higher in EC50: 224 nM for the first, 2250 nM for the second. The first is the more potent here.

Going from CCCC[C@@H]1NC(=O)[C@H](Cc2cnc(S(C)(=O)=O)nc2)NC(=O)[C@H](C)N(C)C(=O)[C@H](Cc2ccccc2)OC(=O)C23CC(CNC(=O)[C@H](Cc4ccccc4)N(C)C(=O)[C@H](CCCC)NC(=O)[C@H](Cc4ccccc4F)NC1=O)(C2)C3 [compound 313, cyclo(FLac-NMeA-AlaPyrim4SO2Me-Nle-Phe2F-Nle-NMeF-amBCP)] (cyclo([NMeA][X82][Nle][Phe(2-F)][Nle][NMeF][X1][PhLac])) to CCCC[C@@H]1NC(=O)[C@H](Cc2cncnc2)NC(=O)[C@H](C)N(C)C(=O)[C@H](Cc2ccccc2)OC(=O)C23CC(CNC(=O)[C@H](Cc4ccc(OC)cc4)N(C)C(=O)[C@H](CCCC)NC(=O)[C@H](Cc4ccccc4F)NC1=O)(C2)C3 [compound 175, cyclo(FLac-NMeA-PyrimAla-Nle-Phe2F-Nle-NMeYOMe-amBCP)] (cyclo([NMeA][Ala(pyrimidin-5-yl)][Nle][Phe(2-F)][Nle][NMeY](Me)[X1][PhLac])), the EC50 rises from 5.22 nM to 11 nM (2.1-fold).

Compared with CCCC[C@@H]1NC(=O)[C@H](Cc2cccnc2)NC(=O)[C@H](C)N(C)C(=O)[C@H](Cc2ccccc2)NC(=O)C23CC(CNC(=O)[C@H](Cc4cccnc4)N(C)C(=O)[C@H](CCCC)NC(=O)[C@H](Cc4ccccc4F)NC1=O)(C2)C3 [compound 162, cyclo(F-NMeA-3Pal-Nle-Phe2F-Nle-NMe3Pal-amBCP)] (cyclo(F[NMeA][3Pal][Nle][Phe(2-F)][Nle][NMe3Pal][X1])), CCCC[C@@H]1NC(=O)[C@H](Cc2cccnc2)NC(=O)[C@H](CCCn2ccnc2)N(C)C(=O)[C@H](Cc2ccccc2)NC(=O)C23CC(CNC(=O)[C@H](Cc4cccnc4)N(C)C(=O)[C@H](CCCC)NC(=O)[C@H](Cc4ccccc4F)NC1=O)(C2)C3 [compound 265, cyclo(F-NMeNvalmid~3Pal-Nle-Phe2F-Nlc-NMe3Pal-amBCP)] (cyclo(F[NMeNva(5-imidazol-1-yl)][3Pal][Nle][Phe(2-F)][Nle][NMe3Pal][X1])) is 3.4-fold lower in EC50: 313 nM for the first, 90.9 nM for the second. The second is the more potent here.

First: C[C@H]1C(=O)N[C@@H](Cc2cncnc2)C(=O)N[C@@H](CCC(C)(F)F)C(=O)N[C@@H](Cc2ccccc2F)C(=O)N[C@@H](CCC(C)(F)F)C(=O)N(C)[C@@H](Cc2ccccc2)C(=O)NCC23CC(C2)(C3)C(=O)O[C@@H](Cc2ccccc2)C(=O)N1C [compound 288, cyclo(FLac-NMeA-PyrimAla-Nle3F2-Phe2F-Nle3F2-NMeF-amBCP)] (cyclo([NMeA][Ala(pyrimidin-5-yl)][Nle(5,5-F2)][Phe(2-F)][Nle(5,5-F2)][NMeF][X1][PhLac]))
Second: CC(C)CC[C@@H]1NC(=O)[C@H](Cc2ccccc2F)NC(=O)[C@H](CC2CC2)NC(=O)[C@H](Cc2cncnc2)NC(=O)[C@H](C)N(C)C(=O)[C@H](Cc2ccccc2)OC(=O)C23CC(CNC(=O)[C@H](Cc4ccccc4)N(C)C1=O)(C2)C3 [compound 260, cyclo(FLac-NMeA-PyrimAla-cPrA-Phe2F-hL-NMeF-amBCP)] (cyclo([Ala(cPr)][Phe(2-F)][hLeu][NMeF][X1][PhLac][NMeA][Ala(pyrimidin-5-yl)]))
The EC50 of the first is 130-fold higher: 247 nM for the first, 1.95 nM for the second. The second is the more potent here.

Compared with CCCC[C@@H]1NC(=O)[C@H](Cc2ccccc2F)NC(=O)[C@H](CC(C)C)NC(=O)[C@H](Cc2cncnc2)NC(=O)[C@H](C)N(C)C(=O)[C@H](Cc2ccccc2)OC(=O)C23CC(CNC(=O)[C@H](Cc4cccnc4)N(C)C1=O)(C2)C3 [compound 129, cyclo(FLac-NMeA-PyrimAla-L-Phe2F-Nle-NMe3Pal-amBCP)] (cyclo([PhLac][NMeA][Ala(pyrimidin-5-yl)]L[Phe(2-F)][Nle][NMe3Pal][X1])), CC(C)CC[C@@H]1NC(=O)[C@H](Cc2cccnc2F)NC(=O)[C@H](CC2CC2)NC(=O)[C@H](Cc2cncnc2)NC(=O)[C@H](C)N(C)C(=O)[C@H](Cc2ccccc2)OC(=O)C23CC(CNC(=O)[C@H](Cc4ccccc4)N(C)C1=O)(C2)C3 [compound 215, cyclo(FLac-NMeA-PyrimAla-cPrA-3Pal2F-hL-NMeF-amBCP)] (cyclo([Ala(cPr)][X46][hLeu][NMeF][X1][PhLac][NMeA][Ala(pyrimidin-5-yl)])) is 7.1-fold higher in EC50: 4.38 nM for the first, 31 nM for the second. The first is the more potent here.

Compared with CCCC[C@@H]1NC(=O)[C@H](Cc2ccc(O)cc2)NC(=O)[C@H](CC2CCOCC2)NC(=O)[C@H](Cc2ccc(NC(=N)N)cc2)NC(=O)[C@H](CCCNC(=N)N)NC(=O)[C@H](Cc2cccc3ccccc23)NC(=O)CSC[C@H](C(=O)O)NC(=O)[C@H](Cc2ccccc2)N(C)C1=O [compound 147, cyclo(INal-R-Phe4Gn-AlaTHP4-Y-Nle-NMeF-dC-ClAc)] ({CH2CO}-[1Nal]R[Phe(4-guanidino)][Ala(4-THP)]Y[Nle][NMeF][dC]-OH; thioether N-8), CCC[C@@H]1NC(=O)[C@H](Cc2ccc(O)cc2)NC(=O)[C@H](CC(C)C)NC(=O)[C@H](Cc2ccc(O)cc2)NC(=O)[C@H](CCCNC(=N)N)NC(=O)[C@H](Cc2ccccc2)NC(=O)CSCCNC(=O)[C@H](Cc2ccccc2)N(C)C1=O [compound 83, cyclo(F-R-Y-L-Y-Nva-NMeF-Cysteamine-ClAc)] is 12-fold higher in EC50: 512 nM for the first, 6350 nM for the second.

Going from CC(C)CC[C@@H]1NC(=O)[C@H](Cc2ccccc2F)NC(=O)[C@H](CC2CCCC2)NC(=O)[C@H](Cc2cncnc2)NC(=O)[C@H](C)N(C)C(=O)[C@H](Cc2ccccc2)OC(=O)C23CC(CNC(=O)[C@H](Cc4cncnc4)N(C)C1=O)(C2)C3 [compound 335, cyclo(FLac-NMeA-PyrimAla-cPeA-Phe2F-hL-NMeAlaPyrim-amBCP)] (cyclo([Ala(cPent)][Phe(2-F)][hLeu][X3][X1][PhLac][NMeA][Ala(pyrimidin-5-yl)])) to CC(C)CC[C@@H]1NC(=O)[C@H](Cc2cc(F)ncc2F)NC(=O)[C@H](CC2CC2)NC(=O)[C@H](Cc2cncnc2)NC(=O)[C@H](C)N(C)C(=O)[C@H](Cc2ccccc2)OC(=O)C23CC(CNC(=O)[C@H](Cc4ccccc4)N(C)C1=O)(C2)C3 [compound 280, cyclo(FLac-NMcA-PyrimAla-cPrA-4Pal25F2-hL-NMeF-amBCP)] (cyclo([Ala(cPr)][X42][hLeu][NMeF][X1][PhLac][NMeA][Ala(pyrimidin-5-yl)])), the EC50 rises from 1 nM to 4 nM (4-fold).

Going from CCCC[C@@H]1NC(=O)[C@H](Cc2ccc(OCCN3CCCC3)cc2)NC(=O)[C@H](C)N(C)C(=O)[C@H](Cc2ccccc2)OC(=O)C23CC(CNC(=O)[C@H](Cc4ccccc4)N(C)C(=O)[C@H](CCCC)NC(=O)[C@H](Cc4ccccc4F)NC1=O)(C2)C3 [compound 316, cyclo(FLac-NMeA-TyrOEtPyr-Nle-Phe2F-Nle-NMeF-amBCP)] (cyclo([NMeA]Y(Ethyl(2-pyrrolidin-1-yl))[Nle][Phe(2-F)][Nle][NMeF][X1][PhLac])) to CC(C)CC[C@@H]1NC(=O)[C@H](Cc2ccccc2F)NC(=O)[C@H](CC2CC2)NC(=O)[C@H](Cc2cccnc2)NC(=O)[C@H](C)N(C)C(=O)[C@H](Cc2ccccc2)OC(=O)C23CC(CNC(=O)[C@H](Cc4cccnc4F)N(C)C1=O)(C2)C3 (single isomer, unassigned) [compound 297, cyclo(FLac-NMeA-3Pal-cPrA-Phe2F-hL-NMe3Pal2F-amBCP)], the EC50 falls from 7.34 nM to 4 nM (1.8-fold). The second is the more potent here.

Compound C[C@H]1C(=O)N[C@@H](Cc2cccnc2)C(=O)N[C@@H](CC2CCC2)C(=O)N[C@@H](Cc2ccccc2F)C(=O)N[C@@H](CCC(C)(F)F)C(=O)N(C)[C@@H](Cc2cncc(F)c2)C(=O)NCC23CC(C2)(C3)C(=O)O[C@@H](Cc2ccccc2)C(=O)N1C [compound 285, cyclo(FLac-NMeA-3Pal-cBuA-Phe2F-Nle3F2-NMe3Pal5F-amBCP)] (cyclo([3Pal][Cba][Phe(2-F)][Nle(5,5-F2)][NMe3Pal(5-F)][X1][PhLac][NMeA])) has an EC50 of 13 nM.
